Activity and inhibition data for four compounds are collected here from ChEMBL document CHEMBL1153807, “An inhibitor of CCL2-induced chemotaxis from the fungus Leptoxyphium sp” (J Nat Prod, 2009).

What all share (type): cell-based
Series [1] in a line: Cytotoxicity against human monocytes at 100 uM after 24 hrs. The conditions noted are these: monocyte.
The target of series [2] is C-C chemokine receptor type 2 (Homo sapiens) (UniProt P41597). As to the kind of experiment: Inhibition of CCR2 in human monocytes assessed as CCL2-induced cell migration at 100 uM after 1.5 hrs by micro-Boyden chamber.
Series [3] shares this target. As to the kind of experiment: Inhibition of CCR2 in human monocytes assessed as CCL2-induced cell migration at 10 uM after 1.5 hrs by micro-Boyden chamber.
Series [4] has the same target. As to the kind of experiment: Inhibition of CCR2 in human monocytes assessed as cell migration at 100 uM after 30 mins.

The structures appear in SMILES notation. Calls of active or inactive are those of the source. No cut-off for these calls is given here.

Sequence of C-C chemokine receptor type 2 (Homo sapiens) (P41597 whole entry, looked up): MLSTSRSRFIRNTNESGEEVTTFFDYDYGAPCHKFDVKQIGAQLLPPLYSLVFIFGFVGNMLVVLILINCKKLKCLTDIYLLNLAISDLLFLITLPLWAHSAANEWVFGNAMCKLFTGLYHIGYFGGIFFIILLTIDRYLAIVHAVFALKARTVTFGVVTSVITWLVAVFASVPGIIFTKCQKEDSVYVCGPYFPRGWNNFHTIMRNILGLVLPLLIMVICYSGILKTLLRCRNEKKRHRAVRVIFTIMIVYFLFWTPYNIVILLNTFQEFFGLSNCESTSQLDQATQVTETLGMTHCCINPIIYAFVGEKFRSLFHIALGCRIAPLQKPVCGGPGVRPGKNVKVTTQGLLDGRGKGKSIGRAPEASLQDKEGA

Consider `CC(C)C[C@@H]1C(=O)N[C@@H](Cc2c[nH]c3ccccc23)C(=O)N1C`, for which the Activity result in series [1] is listed as “Non-toxic”. In addition, the inhibition entry in series [2] was “inactive”.
For `O=C1N[C@H](Cc2cc(Cl)c(O)c(Cl)c2)C(=O)N2CCC[C@H]12`, in series [3], the inhibition result was “Active”. In addition, the Activity result in series [1] is recorded as “Non-toxic”.
`CON1C(=O)C2NC(=O)[C@@]13Oc1cc(O)c(Cl)cc1[C@@H]3SS2`: the Activity entry in series [1] was “Toxic”.
`O=C1N[C@@H](Cc2ccc(O)cc2)C(=O)N2CCC[C@@H]12`: the inhibition result in series [4] and in series [2] was “inactive” in each case. Besides, in series [1], the Activity entry is on record as “Non-toxic”.
